Laboratory results as given in patent EP0354714A2, “Pharmaceutical compositions containing polyaromatic compounds” (HADASSAH MEDICAL ORGANIZATION, priority 1988, dated 1990).

Key:
[1] = Minimum concentration that significantly prolongs APTT versus standard buffer solution; format: biochemical; conditions: concentration at which the polymeric components of the dye significantly prolonged APTT versus standard buffer solution
[2] = biological target: T1, lipoprotein lipase (LPL) (Rattus norvegicus, UniProt Q06000); assay: LPL activity in cultured heart cells and their medium after 24 hrs incubation; format: cell-based; conditions: heart cells; for LPL activity: Total: control 3237; for LPL activity: Medium / LPL activity: Cells: mean±SEM of triplicates; for LPL activity: Medium: control 817±14; for LPL activity: Cells: control 2420±93
T1 construct: endogenous in cells; host or cells: F1 heart cell cultures from newborn rat hearts (mainly non-beating mesenchymal cells)
T1 sequence (Q06000 28-474): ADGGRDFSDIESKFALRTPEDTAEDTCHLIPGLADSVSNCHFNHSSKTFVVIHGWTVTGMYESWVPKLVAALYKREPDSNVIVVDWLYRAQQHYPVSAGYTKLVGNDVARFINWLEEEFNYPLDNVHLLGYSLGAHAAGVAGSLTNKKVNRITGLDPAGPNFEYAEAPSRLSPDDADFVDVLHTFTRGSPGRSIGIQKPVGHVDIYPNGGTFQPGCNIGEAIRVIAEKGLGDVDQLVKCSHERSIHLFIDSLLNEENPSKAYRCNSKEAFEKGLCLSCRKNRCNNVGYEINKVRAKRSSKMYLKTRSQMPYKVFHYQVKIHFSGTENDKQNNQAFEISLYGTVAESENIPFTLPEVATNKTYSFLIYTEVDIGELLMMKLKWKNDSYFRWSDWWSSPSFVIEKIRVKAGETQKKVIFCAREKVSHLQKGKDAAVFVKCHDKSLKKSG
Procedure: The enzyme LPL participate in the process of lipid transfer from the bloodstream to the tissues, LPL is bound to the external surface of cells via its association with cell-membrane glycosaminoglycans. Cultured heart cells is a powerful system in the study of the enzyme turn-over and the exploration of ways to manipulate its level since these cells are active in the biosynthesis of LPL, in addition to the surface binding of the enzyme.
F₁ heart cell cultures were prepared from newborn rat hearts as previously described (Chajek, T. et al., Biochem. Biophys. Acta 528, 456-474 (1978)). They consisted mainly of non-beating mesenchymal cells and were used 8-12 days after their isolation.
The enzyme activity was determined on aliquots of medium and of homogenates of cells which had been released from the petri dish with a rubber policeman in 1 ml of 0.025 M NH₃/NH₄Cl buffer (pH 8.1) containing 1 unit/ml of heparin. The assay system consisted of 0.1 ml of medium or 0.1 ml of cell homogenate ([…]) and 0.1 ml of substrate containing labeled triolein, prepared according to the method of Nilsson-Ehle and Schotz, (J. Lipid Res. 17, 536-541 (1976)). Incubations were carried out at 37°C for 45 min. The reaction was stopped by the addition of methanol/chloroform/heptane (1.4:1.25:1.v/v) and the extraction of fatty acids was performed according to the method of Belfrage and Vaughan (J. Lipid Res. 10, 341-344 (1969), as modified by Nilsson-Ehle and Schotz. Enzyme activity was calculated according to the formula of Nilsson-Ehle and Schotz.

[3] = biological target: T2, ESb mouse lymphoma heparanase (Mus musculus, UniProt Q6YGZ1); assay: Inhibition of heparanase degradation of 35S-labelled ECM; format: biochemical; conditions: 10 µgr/ml, 24 hours; for Total low-mol-wt. HS fragments released by heparanase (cpm): control 17,756 cpm
T2 construct: endogenous in cells; host or cells: ESb mouse lymphoma cells
T2 sequence (Q6YGZ1 150-535 limits assumed): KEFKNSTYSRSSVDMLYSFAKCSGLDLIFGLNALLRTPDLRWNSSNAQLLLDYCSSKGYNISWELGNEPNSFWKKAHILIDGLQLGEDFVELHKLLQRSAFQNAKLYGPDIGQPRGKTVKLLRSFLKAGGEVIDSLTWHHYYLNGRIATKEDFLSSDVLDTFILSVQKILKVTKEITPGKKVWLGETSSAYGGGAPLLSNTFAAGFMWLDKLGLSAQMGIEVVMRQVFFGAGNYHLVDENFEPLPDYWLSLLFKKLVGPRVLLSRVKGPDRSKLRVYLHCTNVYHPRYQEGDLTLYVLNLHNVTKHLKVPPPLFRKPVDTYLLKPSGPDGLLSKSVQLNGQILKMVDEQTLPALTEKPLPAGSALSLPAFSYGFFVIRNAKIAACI
T2 sequence (Q6YGZ1 28-101 limits assumed): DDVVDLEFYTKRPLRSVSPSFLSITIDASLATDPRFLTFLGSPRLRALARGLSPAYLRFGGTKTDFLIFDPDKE
Procedure: The ability of several of the above mentioned compounds to inhibit lymphoma-cell derived heparanse was tested in the assay system described by Vlodavsky et al. (Cancer Research. 43: 2704-2711 (1983). ³⁵S labled ECM was incubated for 24 hours with ESb mouse lymphoma heparanase in the presence of 10 ugr ml of the indicated compounds. Degradation of the sulfated glycosaminoglycan was followed by gel filtration of the supernatants. Heparanase activity is expressed as the total amount of labled low-molecular-weight fragments released from the ECM substrate. The results are summarized in Table III. Table III

[4] = test system: normal pooled plasma; assay: Activated partial thromboplastin time (APTT) in normal pooled plasma; format: biochemical; conditions: Concentration 0.2 mg/mL; normal pooled plasma alone 25 - 28 sec.
Procedure: Measurement of Activated Partial Thromboplastin Time (APTT)
Utilizing the following procedure, the activated partial thromboplastin time (APTT) was measured for each of comparative compounds A-D:
To an assay cuvette was added 100 ul of normal pooled plasma (George King Biomedical Inc., Kansas) and 100 ul of a solution containing one of the above compounds in aqueous 50 mM Tris hydrochloride at pH 7.5 (0.2 mg of sample in one mL buffer). The sample was placed in a MLA coagulation timer which automatically maintained the sample at 37°C for 2.5 minutes, injected 100 ul of actin activated cephaloplastin reagent, kept 5 minutes, injected 100 ul of 3 mM CaCl, and the clot formation was determined photometrically and the time recorded.

[5] = PTT in rats after oral administration; format: in vivo; conditions: 1 ml of 10%-20% solution, after 2-4 hours, around 20 sec. at time 0
Excerpt: Moreover, since aluminon can be absorbed through the gastrointestinal tract, it can be used as an orally administratable anticoagulant (as opposed to heparin which has to be given by injection).

[6] = test system: Bovine aortal smooth-muscle cells; assay: 3H thymidine incorporation in smooth muscle cells (resting, FGF- or thrombin-stimulated); format: cell-based; conditions: for H³ thymidine incorporation per well (cpm. mean of duplicates) +FGF: FGF 250 ngr/ml, without aluminon 22,574; for H³ thymidine incorporation per well (cpm. mean of duplicates) +FGF / H³ thymidine incorporation per well (cpm. mean of duplicates) Control / H³ thymidine incorporation per well (cpm. mean of duplicates) +Thrombin: 2 days; for H³ thymidine incorporation per well (cpm. mean of duplicates) Control: resting cells, without aluminon 9.823; for H³ thymidine incorporation per well (cpm. mean of duplicates) +Thrombin: thrombin 10⁻⁶M, without aluminon 54,000
Procedure: Bovine aortal smooth-muscle cells were grown in tissue culture plates in the presence of glucose-rich medium (H-21). The cultures (around 35x10³ cells/well in 24 wells' plates) were initially supplemented with 10% fetal calf serum (FCS) for 2-3 days. The cell nutrition was then replaced by a serum-deprived medium (H-21 plus 0.2% FCS) in order to test the effect of defined growth factors on the proliferation of smooth-muscle cells and their possible inhibition by the compounds with heparin-like activity.
In the following representative experiment, the cells transferred to the serum-deprived medium were grown in the presence of thrombin (10⁻⁶M) or FGF (partially purified from bovine brain, 250 ngr/ml). Various concentrations of aluminon were added to the thrombin or FGF-treated cells and to non-treated control cultures. ³H thymidine was also added to all wells for an incubation period of 2 days. The cultures were then harvested and the ³H thymidine incorporated into DNA was measured.

## CN(C)c1ccc(C(=C2C=CC(=[N+](C)C)C=C2)c2ccc([N+](C)(C)C)cc2)cc1.[Cl-].[Cl-] [Methyl Green]
[1]
  Minimum Final Concentration: 50.0 µg/mL

## Cc1cc(-c2ccc(/N=N/c3ccc4c(S(=O)(=O)[O-])cc(S(=O)(=O)[O-])c(N)c4c3O)c(C)c2)ccc1/N=N/c1ccc2c(S(=O)(=O)[O-])cc(S(=O)(=O)[O-])c(N)c2c1O.[Na+].[Na+].[Na+].[Na+] [Evan's Blue]
[2]; Evan's Blue 10⁻³ M
  % increase in the total: +139.4%
  LPL activity: Total: 7749 m mole FFA/h/dish
  LPL activity: Medium: 6051±435 m mole FFA/h/dish
  LPL activity: Cells: 1698±184 m mole FFA/h/dish
[2]; Evan's Blue 10⁻⁴ M
  % increase in the total: +61.6%
  LPL activity: Total: 5230 m mole FFA/h/dish
  LPL activity: Medium: 2783±194 m mole FFA/h/dish
  LPL activity: Cells: 2447±48 m mole FFA/h/dish
[2]; Evan's Blue 10⁻⁵ M
  % increase in the total: +32.5%
  LPL activity: Total: 4288 m mole FFA/h/dish
  LPL activity: Medium: 1531±182 m mole FFA/h/dish
  LPL activity: Cells: 2757±114 m mole FFA/h/dish
[3]
  % Inhibition: 60%
  Total low-mol-wt. HS fragments released by heparanase (cpm): 6,986 cpm

## CCN(Cc1cccc(S(=O)(=O)O)c1)c1ccc(C(=C2C=CC(=[N+](CC)Cc3cccc(S(=O)(=O)O)c3)C=C2)c2ccc(O)cc2S(=O)(=O)[O-])cc1 [Fast Green]
[3]
  % Inhibition: 32%
  Total low-mol-wt. HS fragments released by heparanase (cpm): 12,139 cpm

## O=S(=O)(O)c1ccc(N=C2C=CC(=C(c3ccc(Nc4ccc(S(=O)(=O)O)cc4)cc3)c3ccc(Nc4ccc(S(=O)(=O)O)cc4)cc3)C=C2)cc1 [Methyl Blue]
[3]
  % Inhibition: 23%
  Total low-mol-wt. HS fragments released by heparanase (cpm): 13,676 cpm
[1]
  Minimum Final Concentration: 100.0 µg/mL

## CN(C)c1ccc(C(=C2C=CC(=[N+](C)C)C=C2)c2ccc(N(C)C)cc2)cc1 [Crystal Violet]
[1]
  Minimum Final Concentration: 8.3 µg/mL

## Brilliant Cresyl Blue
[1]
  Minimum Final Concentration: 150.0 µg/mL

## Basic Fuchsin
[1]
  Minimum Final Concentration: 50.0 µg/mL

## CN(C)c1ccc(C(=C2C=CC(=[N+](C)C)C=C2)c2ccccc2)cc1 [Malachite Green]
[1]
  Minimum Final Concentration: 150.0 µg/mL

## O=C(O)C1=CC(=C(c2ccc(O)c(C(=O)O)c2)c2ccc(O)c(C(=O)O)c2)C=CC1=O [Comparative Compound C]
[4]
  APTT: 28 s

## Cc1cc2nc3cc(C)c(N)cc3[n+](-c3ccccc3)c2cc1N.[Cl-] [Safranin O]
[1]
  Minimum Final Concentration: 150.0 µg/mL

## O=C(O)C1=CC(=C(c2ccc(O)c(C(=O)O)c2)c2ccc(O)c(C(=O)O)c2)C=CC1=O [Aluminon, aurintricarboxylic acid]
[3]
  % Inhibition: 78%
[5]
  PTT: > 200 s
[6]; Aluminon 0.2 µgr/ml
  H³ thymidine incorporation per well (cpm. mean of duplicates) +FGF: 22,256 cpm
  H³ thymidine incorporation per well (cpm. mean of duplicates) Control: 8,425 cpm
  H³ thymidine incorporation per well (cpm. mean of duplicates) +Thrombin: 46,857 cpm
[6]; Aluminon 2 µgr/ml
  H³ thymidine incorporation per well (cpm. mean of duplicates) +FGF: 13,089 cpm
  H³ thymidine incorporation per well (cpm. mean of duplicates) Control: 5,120 cpm
  H³ thymidine incorporation per well (cpm. mean of duplicates) +Thrombin: 14,064 cpm
[6]; Aluminon 10 µgr/ml
  H³ thymidine incorporation per well (cpm. mean of duplicates) +FGF: 6,846 cpm
  H³ thymidine incorporation per well (cpm. mean of duplicates) Control: 4,105 cpm
  H³ thymidine incorporation per well (cpm. mean of duplicates) +Thrombin: 6,877 cpm
[6]; Aluminon 20 µgr/ml
  H³ thymidine incorporation per well (cpm. mean of duplicates) +FGF: 6,745 cpm
  H³ thymidine incorporation per well (cpm. mean of duplicates) Control: 4,343 cpm
  H³ thymidine incorporation per well (cpm. mean of duplicates) +Thrombin: 5,705 cpm
[6]; aluminon concentration of 2 µgr/ml (∼4x10⁻⁶M)
  inhibition: More than 40%

## CCN(CC)c1ccc(C(=C2C=CC(=[N+](CC)CC)C=C2)c2ccc(N(CC)CC)cc2)cc1.[Cl-] [Ethyl Violet]
[1]
  Minimum Final Concentration: 50.0 µg/mL

## Methyl Violet
[1]
  Minimum Final Concentration: 75.0 µg/mL

## Aniline Blue
[1]
  Minimum Final Concentration: 150.0 µg/mL

## Cc1cc(C(=C2C=CC(=N)C=C2)c2ccc(N)cc2)ccc1N [Rosaniline Chloride]
[1]
  Minimum Final Concentration: 12.5 µg/mL
